Each structure is given as a SMILES string.

Usually IC50 stands for the concentration needed to halve the response being measured. One may read the Ki as the dissociation constant of the complex between target and ligand, obtained from inhibition or displacement.

A short description of assay [1]: Inhibition of yeast alpha-glucosidase using pNP-alpha-G as substrate measured after 30 mins. Details: species or system Saccharomyces cerevisiae.
Assay [2] can be described thus: Antioxidant activity assessed as DPPH radical scavenging activity incubated for 1.5 hrs under dark condition by spectrometric method. It counts as functional. (In general: Loss of DPPH colour is used to gauge radical scavenging.)
A short description of assay [3]: Antioxidant activity assessed as trolox equivalents of AAPH radical scavenging activity at 50 uM preincubated for 10 mins followed by AAPH addition and measured every min for 30 mins by ORAC-FL assay. In kind it is functional.
Assay [4] can be described thus: Mixed-type inhibition of yeast alpha-glucosidase assessed as enzyme-substrate-inhibitor dissociation constant using varying levels of pNP-alpha-G as substrate incubated for 30 mins and measured at 1 min interval for 30 mins by Lineweaver-burk plot analysis. Details: species or system Saccharomyces cerevisiae.
A short description of assay [5]: Mixed-type inhibition of yeast alpha-glucosidase assessed as […] dissociation constant using varying levels of pNP-alpha-G as substrate incubated for 30 mins and measured at 1 min interval for 30 mins by Lineweaver-burk plot analysis. Details: species or system Saccharomyces cerevisiae.

On to `O=C(/C=C/c1ccc(O)c(O)c1)O[C@H](Cc1ccc(O)c(O)c1)C(=O)NCc1ccccc1`, for which the IC50 in assay [1] was 111 µM; in assay [2] it was 8.2 µM. Further, in assay [3], the Activity turned out to be 2.79 µMequiv/µM.
In the case of `O=C(/C=C/c1ccc(O)c(O)c1)O[C@H](Cc1ccc(O)c(O)c1)C(=O)NCCc1ccccc1`, the concentration for half-maximal inhibition (IC50) in assay [1] turned out to be 87.7 µM; in assay [2] it was 10.4 µM. For the same compound, in assay [3], the Activity is 3.07 µMequiv/µM.
On the same counts, the results for `CN(C)CCCNC(=O)[C@@H](Cc1ccc(O)c(O)c1)OC(=O)/C=C/c1ccc(O)c(O)c1` are 65.5 µM, 9.3 µM and 2.64 µMequiv/µM.
For `CN1CCN(CCNC(=O)[C@@H](Cc2ccc(O)c(O)c2)OC(=O)/C=C/c2ccc(O)c(O)c2)CC1`, the Ki in assay [4] is 34.8 µM; in assay [5] it was 22.8 µM. Moreover, the results for the half-maximal inhibitory concentration (IC50) in assay [1] and in assay [2] were 35.2 µM and 9.7 µM, respectively. Besides, in assay [3], the Activity turned out to be 2.77 µMequiv/µM.
For `CCN(CC)CCCNC(=O)[C@@H](Cc1ccc(O)c(O)c1)OC(=O)/C=C/c1ccc(O)c(O)c1`, the half-maximal inhibitory concentration (IC50) was found to be 42.3 µM in assay [1] and 8.9 µM in assay [2]. In addition, in assay [3], the Activity worked out at 2.81 µMequiv/µM.
For the compound `CC(C)CNC(=O)[C@@H](Cc1ccc(O)c(O)c1)OC(=O)/C=C/c1ccc(O)c(O)c1`, the IC50 is 108 µM in assay [1] and 11.9 µM in assay [2]. For the same compound, the Activity in assay [3] came out at 2.15 µMequiv/µM.
Take `Cc1ccc(CNC(=O)[C@@H](Cc2ccc(O)c(O)c2)OC(=O)/C=C/c2ccc(O)c(O)c2)cc1`: the IC50 in assay [1] turned out to be 109 µM; in assay [2] it was 10.1 µM. Also, the Activity in assay [3] was 2.62 µMequiv/µM.
On the same counts, the results for `O=C(/C=C/c1ccc(O)c(O)c1)O[C@H](Cc1ccc(O)c(O)c1)C(=O)NCCc1ccc(O)cc1` are 74.9 µM, 7.1 µM and 3.28 µMequiv/µM.
As for `C[C@H]1O[C@H](O[C@H]2[C@H](O)[C@@H](O)[C@@H](O[C@H]3[C@H](O)[C@@H](O)C(O)O[C@@H]3CO)O[C@@H]2CO)[C@H](O)[C@@H](O)[C@@H]1N[C@H]1C=C(CO)[C@@H](O)[C@H](O)[C@H]1O` (stereo partly drawn) [ACARBOSE], the 50% inhibitory concentration (IC50) in assay [1] was in the range of 269 to 285 µM.
As to `CCCCNC(=O)[C@@H](Cc1ccc(O)c(O)c1)OC(=O)/C=C/c1ccc(O)c(O)c1`, the figures for the IC50 in assay [1] and in assay [2] were 106 µM and 8.3 µM, respectively. Moreover, the Activity in assay [3] was determined as 2.72 µMequiv/µM.
On the same counts, the results for `O=C(/C=C/c1ccc(O)c(O)c1)O[C@H](Cc1ccc(O)c(O)c1)C(=O)O` [ROSMARINIC ACID] are 134 µM, 11 µM and 2.1 µMequiv/µM.
For `O=c1c(O)c(-c2ccc(O)c(O)c2)oc2cc(O)cc(O)c12` [QUERCETIN], the concentration for half-maximal inhibition (IC50) in assay [2] fell in the range of 15.6 to 16.8 µM. Further, the Activity in assay [3] is 2.11 to 2.19 µMequiv/µM.
As to `O=C(/C=C/c1ccc(O)c(O)c1)O[C@H](Cc1ccc(O)c(O)c1)C(=O)NCCN1CCCCC1`, the values for the IC50 in assay [1] and in assay [2] were 53.3 µM and 10.1 µM, respectively. Also, in assay [3], the Activity was determined as 2.84 µMequiv/µM.
